In patent publication US20230183179A1, “NOVEL CELL METABOLISM MODULATING COMPOUNDS AND USES THEREOF” (CRESCENTA BIOSCIENCES, priority 2020, published 2023):

target: T1, His6 tagged human recombinant FABP4 (Homo sapiens, UniProt P15090); experiment: FABP4 TR-FRET assay: displacement of fluorescent fatty acid BODIPY FL C12; details: inhibition of BODIPY FL C12 binding to His6-FABP4; 1.2 μL of 1.085 mM compound in DMSO per well; triplicates, mean percent inhibition
T1 construct: purchased Cayman Chemicals 10009549
Description: Activity of compounds with FABP4 was profiled using a Terbium (Tb) based time resolved fluorescence energy transfer (TR-FRET) assay. The assay measures the compound mediated displacement of the fluorescent fatty acid BODIPY FL C12 (Thermo Fisher; catalog number D3822) from His6 tagged human recombinant FABP4 (His6-FABP4; Cayman Chemicals, catalog number 10009549) via recording the energy transfer from TB donor molecule on anti-His6-tag antibody to acceptor BODIPY moiety. Briefly, compounds and BODIPY FL C12 were prepared at a concentration of 1.085 mM and 4.2 μM, respectively, in DMSO. 1.2 μL of each compound or DMSO (vehicle control) and 1.2 μL of BODIPY FL C12 were added into the wells of a 384-well black polypropylene plate. His6-FABP4 and Tb anti-His6 antibody were prepared in the assay buffer (25 mM Tris/HCl, pH 7.4, 0.4 mg/ml γ-globulins, 0.010% NP-40, 1 mM DTT) at a concentration of 83 nM and 49.6 nM, respectively. The protein and antibody solutions were then mixed at a ratio of 34:7 (v/v) and incubated on ice for 30 minutes. The assay was initiated by adding 41 μL of the resulting protein/antibody solution into the wells containing the compounds and BODIPY FL C12. The plate was centrifuged and incubated at room temperature for 10 min. The TR-FRET signals were recorded using an EnVision Multilabel plate reader (PerkinElmer; TB excitation 320 nm, BODIPY FL C12 emission 520 nm; TB emission 615 nm). Relative fluorescence ratio (520 nm*10,000/615 nm) were used to calculate the compound mediated inhibition of BODIPY C12 FL fatty acid binding to FABP4. The compounds were tested in triplicates and the results were represented as mean percent inhibition (compound*100/DMSO)±standard deviation (SD). Glucose consumption and FABP4 inhibition is shown below in Table 3 below. The compounds showing no inhibition of activity in the TR-FRET assay are marked as N.A. N.D. stands for “not determined”.

T1 sequence (P15090 whole entry): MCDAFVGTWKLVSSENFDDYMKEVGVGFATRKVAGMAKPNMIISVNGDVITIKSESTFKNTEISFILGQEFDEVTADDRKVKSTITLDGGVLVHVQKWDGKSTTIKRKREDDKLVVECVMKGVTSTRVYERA

| Structure (SMILES) | inhibition at 1085 µM (stock) |
| --- | --- |
| CCCCc1ccc2nc(N3CCCC(C(=O)O)C3)cc(-c3ccccc3)c2c1 (stereo not drawn) [1-(6-butyl-4-phenylquinolin-2-yl)piperidine-3-carboxylic acid] | 98.1% |
| CCCCc1ccc2nc(N3CCCC3C(=O)O)cc(-c3ccccc3)c2c1 (stereo not drawn) [1-(6-butyl-4-phenylquinolin-2-yl)pyrrolidine-2-carboxylic acid] | 92.5% |
| CN(CC(=O)O)c1cc(-c2ccccc2)c2cc(CCN3CCc4ccccc43)ccc2n1 [2-({6-[2-(2,3-dihydro-1H-indol-1-yl)ethyl]-4-phenylquinolin-2-yl}(methyl)amino)acetic acid] | 76.3% |
| CN(CC(=O)O)c1cc(-c2ccccc2)c2cc(CCN3CCC(O)CC3)ccc2n1 [2-({6-[2-(4-hydroxypiperidin-1-yl)ethyl]-4-phenylquinolin-2-yl}(methyl)amino)acetic acid] | 14.3% |
| CCN(CC)CCc1ccc2nc(N(C)CC(=O)O)cc(-c3ccccc3)c2c1 [2-({6-[2-(diethylamino)ethyl]-4-phenylquinolin-2-yl}(methyl)amino)acetic acid] | 5.17% |
| CN(CC(=O)O)c1cc(-c2ccccc2)c2cc(CCN3CCc4ccccc4C3)ccc2n1 [2-[methyl({4-phenyl-6-[2-(1,2,3,4-tetrahydroisoquinolin-2-yl)ethyl]quinolin-2-yl})amino]acetic acid] | 21.7% |
| CN(CC(=O)O)c1cc(-c2ccccc2)c2cc(CCN3CCCC3)ccc2n1 [2-[methyl({4-phenyl-6-[2-(pyrrolidin-1-yl)ethyl]quinolin-2-yl})amino]acetic acid] | 2.04% |
| CN(CC(=O)O)c1cc(-c2ccccc2)c2cc(CCc3nc4ccccc4n3C)ccc2n1 [2-[methyl({6-[2-(1-methyl-1H-1,3-benzodiazol-2-yl)ethyl]-4-phenylquinolin-2-yl})amino]acetic acid] | 30.3% |

test system: differentiated 3T3-L1 mouse adipocyte cells; experiment: Adipocyte glucose consumption in differentiated 3T3-L1 cells (colorimetric glucose assay of the medium); type: cell-based; details: 3T3-L1, 24 h, compound 10 μM, loss of glucose from culture medium, mean fold change (compound/DMSO)
Description: Activity of compounds on adipocyte glucose consumption was tested in differentiated 3T3-L1 mouse adipocyte cells. 3T3-L1 preadipocytes (ATCC) were routinely cultured in a growth medium composed of DMEM high-glucose (Sigma), 10% FBS (Gibco), 10 U/ml penicillin and 10 μg/ml streptomycin (P/S; Gibco). To induce adipogenic differentiation, a confluent layer of 3T3-L1 cells were incubated with the growth medium containing 2 μM rosiglitazone, 1 μM dexamethasone, 500 μM IBMX, and 1 μg/ml insulin (Sigma). Forty-eight (48) hours later (on day 2) and on days 4 and 6, medium of the cells was replaced with fresh medium containing 1 μg/ml insulin. On days 8 and 10, the medium was refreshed with regular growth medium and addition of insulin was omitted. On day 11, medium of the cells were 10 replaced with fresh medium containing either the indicated compounds (10 μM) or the vehicle in which the compounds were dissolved (DMSO). The final concentration of DMSO was 0.1% (v/v). Growth medium containing 0.1% DMSO was incubated in culture wells containing no cells and used as control. 24 hours later, medium was harvested and subjected to centrifugation at 10,000 g for 5 min. Glucose concentration in the supernatants was determined using a 15 colorimetric assay (Glucose Assay Kit I, Eton Biosciences). Glucose consumption in compound and vehicle treated cells was measured as loss of glucose from the culture medium and represented as mean fold change (compound/DMSO)±standard deviation (SD).

| Structure (SMILES) | fold induction at 10 µM |
| --- | --- |
| CCCCCCc1ccc2nc([C@H]3C[C@H]3C(=O)O)cc(-c3ccccc3)c2c1 (relative stereo) [cis-2-(6-hexyl-4-phenylquinolin-2-yl)cyclopropane-1-carboxylic acid] | 1.36 |
| CCCCCCc1ccc2nc([C@@H]3C[C@H]3C(=O)O)cc(-c3ccccc3)c2c1 (relative stereo) [trans-2-(6-hexyl-4-phenylquinolin-2-yl)cyclopropane-1-carboxylic acid] | 1.14 |
| CCCCc1ccc2nc(N3CCCC(C(=O)O)C3)cc(-c3ccccc3)c2c1 (stereo not drawn) [1-(6-butyl-4-phenylquinolin-2-yl)piperidine-3-carboxylic acid] | 1.25 |
| CCCCc1ccc2nc(N3CCCC3C(=O)O)cc(-c3ccccc3)c2c1 (stereo not drawn) [1-(6-butyl-4-phenylquinolin-2-yl)pyrrolidine-2-carboxylic acid] | 1.12 |
| CCCCCCc1ccc2nc(N3CC(C(=O)O)C3)cc(-c3ccccc3)c2c1 [1-(6-hexyl-4-phenylquinolin-2-yl)azetidine-3-carboxylic acid] | 1.27 |
| CCCCCCc1ccc2nc(N3CCC(C(=O)O)C3)cc(-c3ccccc3)c2c1 (stereo not drawn) [1-(6-hexyl-4-phenylquinolin-2-yl)pyrrolidine-3-carboxylic acid] | 1.24 |
| O=C(O)C1CCN(c2cc(-c3ccccc3)c3cc(CCc4ccccc4)ccc3n2)C1 (stereo not drawn) [1-[4-phenyl-6-(2-phenylethyl)quinolin-2-yl]pyrrolidine-3-carboxylic acid] | 1.21 |
| CCCCCCc1ccc2nc(NCC(=O)O)cc(-c3ccc(F)cc3)c2c1 [2-([4-(4-fluorophenyl)-6-hexylquinolin-2-yl]amino}acetic acid] | 1.12 |
| CCCC/C=C/c1ccc2nc(N(C)CC(=O)O)cc(-c3ccccc3)c2c1 [2-({6-[(1E)-hex-1-en-1-yl]-4-phenylquinolin-2-yl}(methyl)amino)acetic acid] | 1.32 |
| CCCCc1ccc2nc(N(C)CC(=O)O)cc(-c3ccccc3)c2c1 [2-[(6-butyl-4-phenylquinolin-2-yl)(methyl)amino]acetic acid] | 1.37 |
| CCCCCCCc1ccc2nc(N(C)CC(=O)O)cc(-c3ccccc3)c2c1 [2-[(6-heptyl-4-phenylquinolin-2-yl)(methyl)amino]acetic acid] | 1.4 |
| CCCCCCc1ccc2nc(N(C)CC(=O)NCCO)cc(-c3ccccc3)c2c1 [2-[(6-hexyl-4-phenylquinolin-2-yl)(methyl)amino]-N-(2-hydroxyethyl)acetamide] | 1.11 |
| CCCCCCc1ccc2nc(OC(C)C(=O)O)cc(-c3ccccc3)c2c1 (stereo not drawn) [2-[(6-hexyl-4-phenylquinolin-2-yl)oxy]propanoic acid] | 1.25 |
| CN(CC(=O)O)c1cc(-c2ccccc2)c2cc(CCc3ccccn3)ccc2n1 [2-[methyl({4-phenyl-6-[2-(pyridin-2-yl)ethyl]quinolin-2-yl})amino]acetic acid] | 1.39 |
| CN(CC(=O)O)c1cc(-c2ccccc2)c2cc(/C=C/c3ccccc3)ccc2n1 [2-[methyl({4-phenyl-6-[(1E)-2-phenylethenyl]quinolin-2-yl})amino]acetic acid] | 1.21 |
| CCCCCCc1ccc2nc(N(C)CC(=O)O)cc(-c3ccccc3C(=O)O)c2c1 [2-{2-[(carboxymethyl)(methyl)amino]-6-hexylquinolin-4-yl}benzoic acid] | 1.17 |
| CCCCCCc1ccc2nc(N(C)CC(=O)O)cc(-c3ccccc3F)c2c1 [2-{[4-(2-fluorophenyl)-6-hexylquinolin-2-yl](methyl)amino}acetic acid] | 1.26 |
| CCCCCCc1ccc2nc(N(C)CC(=O)O)cc(-c3c(C)noc3C)c2c1 [2-{[4-(3,5-dimethyl-1,2-oxazol-4-yl)-6-hexylquinolin-2-yl](methyl)amino}acetic acid] | 1.22 |
| CCCCCCc1ccc2nc(N(C)CC(=O)O)cc(-c3cccc(C#N)c3)c2c1 [2-{[4-(3-cyanophenyl)-6-hexylquinolin-2-yl](methyl)amino}acetic acid] | 1.26 |
| CCc1ccc(-c2ccc3nc(N(C)CC(=O)O)cc(-c4ccccc4)c3c2)cc1 [2-{[6-(4-ethylphenyl)-4-phenylquinolin-2-yl](methyl)amino}acetic acid] | 1.06 |
| CCCCCCCCCCc1ccc2nc(N(C)CC(=O)O)cc(-c3ccc(F)cc3)c2c1 [2-{[6-decyl-4-(4-fluorophenyl)quinolin-2-yl](methyl)amino}acetic acid] | 1.37 |
| CCCCCCc1ccc2nc(N(C)CC(=O)O)cc(-c3cccc(C)c3)c2c1 [2-{[6-hexyl-4-(3-methylphenyl)quinolin-2-yl](methyl)amino}acetic acid] | 1.11 |
| CN(CC(=O)O)c1cc(-c2ccccc2)c2cc(CCc3ccccc3)ccc2n1 [2-{methyl [4-phenyl-6-(2-phenylethyl)quinolin-2-yl]amino}acetic acid] | 1.48 |
| CCCCCCc1ccc2nc(C(C)CC(=O)O)cc(-c3ccccc3)c2c1 (stereo not drawn) [3-(6-hexyl-4-phenylquinolin-2-yl)butanoic acid] | 1.3 |
| CCCCc1ccc2nc(N(C)CCC(=O)O)cc(-c3ccccc3)c2c1 [3-[(6-butyl-4-phenylquinolin-2-yl)(methyl)amino]propanoic acid] | 1.1 |
| CCCCCCc1ccc2nc(CC3SC(=O)NC3=O)cc(-c3ccccc3)c2c1 (stereo not drawn) [5-[(6-hexyl-4-phenylquinolin-2-yl)methyl]-1,3-thi azolidine-2,4-dione] | 1.33 |
| CCCCCCc1ccc2nc(/C=C3/SC(=O)NC3=O)cc(-c3ccccc3)c2c1 [5-[(6-hexyl-4-phenylquinolin-2-yl)methylidene]-1,3-thiazolidine-2,4-dione] | 1.29 |
| CCCCCCc1ccc2nc(N(C)c3nn[nH]n3)cc(-c3ccccc3)c2c1 [6-hexyl-N-methyl-4-phenyl-N-(2H-1,2,3,4-tetrazol-5-yl)quinolin-2-amine] | 1.11 |
